Data: a melting point compilation (Tetko et al.; mined from patent text by program, amines drawn as free bases though some values may be those of a salt)

First: O=C(CCCCCCNC(=O)c1cn2c3c(cccc13)CCC2)NO
Second: CCCCCCCNC(=O)Nc1ccccc1N(C)C(=O)c1cc(C(C)(C)C)c(O)c(C(C)(C)C)c1
The melting point of the first is higher: 205 to 206 °C for the first, 193 to 196 °C for the second.

Compared with `CCOC(=O)C(NC(=O)CNC=O)C(=O)OCC`, `CCOC(=O)C1=C(C)NC(C)=C(C(=O)OCCOC)C1c1cccc(Cl)c1Cl` (centres undefined) is higher in melting point: 95 to 96 °C for the first, 139 °C for the second.

Going from `O=C(O)CCCCCc1ccc(O)c(O)c1` to `O=C(O)c1cc(NCc2ccc(C(F)(F)F)cc2)ccc1O`, the melting point rises from 109 °C to > 188 °C.

First: CCc1ccc(S(=O)(=O)CC#N)cc1
Second: CC(C)[C@@H](CO)NS(=O)(=O)c1ccc(Br)cc1
The melting point of the first is higher: 120 to 121 °C for the first, 89 to 94 °C for the second.

First: CCOCc1nc2c(N)nc3ccccc3c2n1CC1(O)CCN(C(=O)OCC)CC1
Second: CCOCc1nc2c(N)nc3cc(-c4ccsc4)ccc3c2n1CC(C)(C)O
The melting point of the first is lower: 165 to 167 °C for the first, 204 to 205 °C for the second.

Compared with `CC1c2cc(Cl)ccc2-c2ccc(Cl)cc21`, `CC1(c2ccc([N+](=O)[O-])cc2)C(=O)Nc2cc(Cl)ccc2C1=O` (centres undefined) is higher in melting point: 110 to 112 °C for the first, 209 to 210 °C for the second.

First: CCOC(=O)C1CCC(=C(C#N)C(=O)c2ccc(Cl)cc2)N1 (centres undefined)
Second: O=S1(=O)N=C(NCC2CCCCC2)Nc2cc(Cl)ccc21
The melting point of the first is lower: 108 to 110 °C for the first, 317 to 323 °C for the second.

Compared with `CN1CCN(C2=Nc3cc(Cl)ccc3Nc3nn(C)nc32)CC1`, `COC(=O)c1cc(OCCCN2CCN(c3cccc4sccc34)CC2)n(C)n1` is lower in melting point: 200 to 203 °C for the first, 109 to 110 °C for the second.

First: CCCCCC(C#CC1C(O)CC(=O)C1CCCCCCC(=O)OC)OC1CCCCO1 (mixture of isomers)
Second: CCCCCCN(O)CCCCCC
The melting point of the first is higher: 84 to 85 °C for the first, 67 °C for the second.

First: CN1C(=O)C(NC(=O)C(CC2CC2)C2(C(N)=O)CC=CC2)N=C(c2ccccc2)c2ccccc21 (centres undefined)
Second: O=C1c2ccccc2-c2[nH]c(=O)c(-c3ccccc3)nc21
The melting point of the first is lower: 238 to 240 °C for the first, > 300 °C for the second.

First: CCc1cc(OCc2ccc(C(=O)NS(=O)(=O)c3ccccc3C)cc2)c(C(=O)OC)c(CC)n1
Second: CC(C)Cn1c(C(=O)O)c(-c2cccs2)c2cc(OCc3ccccc3)ccc2c1=O
The melting point of the first is higher: 175 to 176 °C for the first, 171 to 172 °C for the second.

Compared with `Cc1cccc(CCC(O)c2ccccc2)c1NC(=O)CC1c2ccccc2Oc2ccccc21` (centres undefined), `CN(C)CCCN(C(=O)Cc1ccccc1)c1ccccc1SCc1ccc(Cl)cc1` is lower in melting point: 193 to 194 °C for the first, 92 to 94 °C for the second.

First: CCC(=O)CNC(=O)c1cc(OC)cc(Oc2cccc(C(F)(F)F)c2)n1
Second: O=C(Nc1cccc(S(=O)(=O)CCO)c1)c1cnn2c(C(F)(F)F)cc(-c3ccc(C(F)(F)F)cc3)nc12
The melting point of the first is lower: 100 to 103 °C for the first, 237 °C for the second.

First: CCc1noc(C=C(N)c2ccccc2)c1C(=O)NC
Second: CSC[C@H](NCc1ccccc1N)C(=O)O
The melting point of the first is lower: 125 to 132 °C for the first, 193 °C for the second.

First: CCOC(=O)COc1cc(C2C(C(=O)OC)=C(C)NC(C)=C2C(=O)OC)ccc1OC
Second: COc1ccc(CCNC(=O)CCC2(c3ccc(OC)c(OC)c3)SCCCS2)cc1OC
The melting point of the first is higher: 170 °C for the first, 135 to 136 °C for the second.

Compared with `O=C(Nc1cccc(-c2ccnc3c(C(=O)c4cccs4)cnn23)c1)c1ccc(-n2cccc2)cc1`, `CC(=O)c1ccc(C(=O)N2Cc3cccn3Cc3ccccc32)c(Cl)c1` is lower in melting point: 224 to 226 °C for the first, 98 to 100 °C for the second.

First: CC(C)CCc1c(C(C)C)nc(C(C)C)c(CO)c1-c1ccc(F)cc1
Second: CC(C)c1cc2c(-c3nc4cnccc4[nH]3)ccc(OC(F)F)c2o1
The melting point of the first is lower: 43 to 45 °C for the first, 201 °C for the second.

First: CC1=NN=C(c2ccc([N+](=O)[O-])cc2)c2cc(Cl)c(Cl)cc2C1
Second: CC1(C)OC(=S)Nc2ccc(-c3cccc([N+](=O)[O-])c3)cc21
The melting point of the first is higher: 231 to 233 °C for the first, 224 to 226 °C for the second.

Compared with `CC(C)(C)OC(=O)N1CCn2c(-c3ccccc3)cc(C#N)c2C1`, `CC(C)(C)c1ccc2c(O)c(-c3ccccc3)sc2n1` is higher in melting point: 124 to 126 °C for the first, 181 to 183 °C for the second.

First: CCCS(=O)CC(=O)NNC(=O)N1Cc2ccccc2Oc2ccc(Cl)cc21 (centres undefined)
Second: OCc1ncc2n1-c1ccc(Cl)cc1C(c1ccccc1F)=NC2
The melting point of the first is lower: 158 to 160 °C for the first, 258 to 260 °C for the second.

First: N#Cc1cc(=O)c2ccc(CBr)cc2o1
Second: CCC(C)c1c(O)ccc2c1oc1ccc(C#N)cc12 (centres undefined)
The melting point of the first is lower: 162 to 166 °C for the first, 206 to 207 °C for the second.

First: CC(C)OC(=O)N1c2cncnc2NC(=O)C1C (racemic)
Second: CCOCC(OC(C)=O)C1CC(=O)C2(C)CCC3C(CCC4=CC(=O)C=C(C)C43C)C12 (centres undefined)
The melting point of the first is higher: 160 to 162 °C for the first, 155 to 157 °C for the second.

Compared with `CNC(CO)CCOc1cccc2ccccc12` (centres undefined), `Cc1sc2c(Br)c3ccccc3c(-c3ccc(O)cc3)c2c1C` is higher in melting point: 101 to 102 °C for the first, 165 to 168 °C for the second.

First: CC#CCOc1cc(Cc2c(F)cccc2F)ncn1
Second: CC1(C)CC(SCc2c(F)cccc2F)=NO1
The melting point of the first is lower: 57.6 °C for the first, 77 to 80 °C for the second.

Compared with `Nc1nc(NC2CC2)c2ncn([C@@H]3C[C@H](CO)[C@@H](O)C3)c2n1`, `Nc1ccn(C2CC(N)C(CO)O2)c(=O)n1` (centres undefined) is higher in melting point: 174 to 176 °C for the first, 207 °C for the second.

Compared with `CCCOC(C)c1ccc(C(=O)O)cc1` (single isomer, unassigned; (+)), `N#Cc1ccc(C(=O)N=C=S)cc1` is higher in melting point: 56 to 58 °C for the first, 87.5 to 88.5 °C for the second.

First: Cc1c(C)c2c(c(C)c1N)CC(C)(CN1C(=O)c3ccccc3C1=O)O2 (centres undefined)
Second: Cc1c(C)c2c(c(C)c1Br)C(c1ccccc1)CO2 (centres undefined)
The melting point of the first is higher: 147 to 150 °C for the first, 107 to 108 °C for the second.

Compared with `C[C@@H](c1ccccc1)n1c(O)nc2c(N)nc3cccnc3c21`, `O=C(NCc1ccccc1F)c1ccc2cnccc2n1` is lower in melting point: 241 to 243 °C for the first, 110 to 111 °C for the second.

First: CNC(=O)c1sc2cnccc2c1Oc1ccc(CO)cc1
Second: FC(F)(F)COc1ccc(Cc2ccncc2)cc1
The melting point of the first is higher: 195 to 196 °C for the first, 51 to 53 °C for the second.

First: O=C(CNS(=O)(=O)c1ccc(N2CCC(c3ccccc3)CC2)cc1)NO
Second: CS(=O)(=O)c1ccc(-n2cncc2-c2ccccc2F)cc1
The melting point of the first is lower: 164 to 166 °C for the first, 188 to 189 °C for the second.

First: C=CCCC(C(=O)O)(C(=O)O)C(F)F
Second: CC(=N)NC(=O)Nc1ccccc1
The melting point of the first is lower: 80 to 81 °C for the first, 204 to 206 °C for the second.

First: COc1ccc2nc(-c3ccc(N)c(I)c3)sc2c1
Second: Nc1ccc2c(c1N)CN(Cc1ccc(C(F)(F)F)cc1)CC2
The melting point of the first is higher: 179 to 181 °C for the first, 130 to 135 °C for the second.

Compared with `COc1ccccc1N1CCN(CCn2c(=O)[nH]c3sc(C)c(C)c3c2=O)CC1`, `Cc1nc2ccccn2c(=O)c1CCN1CCC(=C(c2ccc(F)cc2)c2ccc(F)cc2)CC1` is lower in melting point: 196 to 197 °C for the first, 109 °C for the second.

Compared with `CCCCCCc1c(C(F)(F)F)noc1NS(=O)(=O)c1ccccc1`, `Cc1noc(NS(=O)(=O)c2cc(Cl)ccc2Cl)c1Br` is higher in melting point: 128 to 129 °C for the first, 148 to 150 °C for the second.

First: O=[N+]([O-])c1cccc2c1C1OC1CC2 (centres undefined)
Second: COC(=O)C(Cl)=Cc1cccc([N+](=O)[O-])c1Cl
The melting point of the first is lower: 67 °C for the first, 110 to 112 °C for the second.

First: CC(=O)Oc1ccc(-c2c(C)c3ccc(OC(C)=O)cc3oc2=O)c(OC(C)=O)c1
Second: CC(C)=CCOc1ccc2c(=O)c(C)c(-c3ccccc3)oc2c1C(=O)C=Cc1ccccc1
The melting point of the first is higher: 145 °C for the first, 83 to 84 °C for the second.

First: Cc1cc(C)c(F)cc1F
Second: C=C(Br)Cc1cc2c(C)cc(=O)oc2c(C)c1O
The melting point of the first is lower: 30 to 31 °C for the first, 154 to 161 °C for the second.

Compared with `O=C(Cc1ccccn1)c1ccccc1[NH+]([O-])C(=O)c1ccccc1` (centres undefined), `C(=Cc1ccc2cc(C=Cc3ccccc3)ccc2c1)c1ccccc1` is higher in melting point: 192 to 194 °C for the first, 291 °C for the second.

First: Sc1nccn1-c1nccs1
Second: c1ccc2c(c1)c1[nH]cnc1c1nnnn21
The melting point of the first is lower: 211 to 213 °C for the first, > 300 °C for the second.

First: Cc1c(CO)c(CO)c2n1-c1ccccc1C2
Second: Cc1nc(-c2ccccc2)[nH]c(=O)c1C
The melting point of the first is lower: 123 to 125 °C for the first, 205 to 207 °C for the second.

First: O=C(O)COc1ccc2c(c1)C[C@H](NC[C@H](O)c1cccc(Cl)c1)CCC2
Second: Brc1ccc2c(c1)CN(Cc1c[nH]c3ccccc13)C2
The melting point of the first is higher: 265 to 266 °C for the first, 188 to 190 °C for the second.

First: Cc1cc(-n2cncn2)c2cccc(C)c2n1
Second: Cc1ncc(CN2CC=C(CCc3ccccc3)CC2)c(N)n1
The melting point of the first is lower: 99 to 100 °C for the first, 152 to 154 °C for the second.

First: CS(=O)(=O)Nn1c(=O)[nH]c2cc([N+](=O)[O-])c(N3CCOCC3)cc2c1=O
Second: CC(=O)c1cc(C(C)=O)cc(S(N)(=O)=O)c1
The melting point of the first is higher: > 260 °C for the first, 179 to 181 °C for the second.

Compared with `NS(=O)(=O)c1ccc(-c2cn(-c3nc(-c4ccc(Cl)cc4)cc(C(F)(F)F)n3)cn2)cc1`, `Cc1ccc(S(=O)(=O)NCCNC2(c3ccc(Cl)cc3)OC(=O)c3ccccc32)cc1` (centres undefined) is lower in melting point: 324 °C for the first, 177 to 179 °C for the second.

Compared with `O=C1N(Cc2cnccc2C(F)(F)F)c2ccccc2C12COc1cc3c(cc12)OCCO3` (centres undefined), `O=C(Nc1ccc(Br)c(C(F)(F)F)c1)c1ccccc1[N+](=O)[O-]` is higher in melting point: 131 to 132 °C for the first, 157 to 158 °C for the second.

Compared with `CC(C)(C)c1ccc(C=NOCCCOc2ccc(CC(=O)O)cc2)cc1`, `O=C1NC(=O)C(Cc2ccc(OCCON=Cc3ccncc3)cc2)S1` (centres undefined) is higher in melting point: 56.2 to 59.2 °C for the first, 221 °C for the second.

First: Oc1c(S)cc(I)cc1I
Second: Oc1ccc(Cl)cc1C1(O)CCCCC1
The melting point of the first is higher: 178 to 180 °C for the first, 110 °C for the second.

First: c1ccc2c(c1)SSSSS2
Second: COC(=O)c1sc2ccccc2c1NC(C)=O
The melting point of the first is lower: 56 to 58 °C for the first, 178 to 180 °C for the second.

First: CCCc1c(OCC(O)CS(=O)(=O)c2ccc(CC(=O)O)c(Cl)c2Cl)ccc(C(C)=O)c1O (centres undefined)
Second: CC(C)(C)OC(=O)NCCc1cccc(OCCC2Oc3ccccc3N(Cc3ccc(Cl)cc3)C2=O)c1 (centres undefined)
The melting point of the first is higher: 181 to 183 °C for the first, 97 to 98.5 °C for the second.

First: CC(=O)ON1C(C)(C)CC2(CC1(C)C)OCC(C)(C)CO2
Second: CC=CC(=O)C1C(C)C(=O)CCC1(C)C (centres undefined)
The melting point of the first is higher: 109 to 111 °C for the first, 76 to 77 °C for the second.

Compared with `COc1cccc(C2=C(CC(C)N3CCCC3)C(=O)NCCC2)c1` (centres undefined), `COc1cc(OC)cc(N2CCN(C(=S)Nc3nc(C)c(C)nc3OC)CC2)c1` is lower in melting point: 94 to 96 °C for the first, 71 to 73 °C for the second.

Compared with `COCCCNc1cc(C(Sc2ccc(Cl)cc2)c2cc(F)ccc2F)c(Cl)cn1` (centres undefined), `CC(C)OCCn1c(C2CCN(CCc3ccc(C(C)(C)C)cc3)CC2)nc2ccccc21` is lower in melting point: 146 to 148 °C for the first, 115 to 117 °C for the second.
